Assay results: patent US20150196025A1, “BIOACTIVE HEME-HALOPEROXIDASE COMPOSITIONS AND METHODS OF THEIR USE” (Exoxemis, Inc., priority 2014, published 2015)

Assays:
Format in all cases: cell-based, Staphylococcus aureus
S. aureus [1] = test: Microbicidal plate assay, pEPO with amine additives, aged 0 or 5 minutes with H2O2 (Example 7); details: FIG. 7, 10 ug/mL pEPO, additive 3 mM, 2 mM NaBr; for microbicidal activity, Reaction 2 (aged 5 minutes with H2O2): 0.89 mM H2O2; for microbicidal activity, Reaction 1 (aged 0 min): 0.89 mM H2O2, one minute, 10^8 cfu/mL
S. aureus [2] = test: Microbicidal plate assay, formulations aged 1 or 30 minutes before adding bacteria, with or without ethanolamine (Examples 5 and 6); details: FIG. 6 compared to FIG. 5
Description: S. aureus (10^9 cfu/mL, final concentration) was added and the reaction was incubated at room temperature for one minute. The reaction was stopped by plating. The plates were incubated overnight at 36° C.
The reactions described in Example 4 were repeated with Formulations F for plates 2-5 with the added condition that the formulations were incubated (aged) 1 or 30 minutes prior to adding the S. aureus bacteria. The reaction was incubated at room temperature for one minute after the addition of bacteria. An additional sample was added (100 μg/mL pEPO; 8.9 mM H2O2; 20 mM ethanolamine; and 20 mmM NaBr).
The reactions were carried out as described in Example 5.

S. aureus [3] = test: Microbicidal plate assay, pEPO formulations aged two minutes to ninety-six hours with H2O2 (Examples 8 and 9); details: 50 ug/mL pEPO, 20 mM additive; for microbicidal activity, Reaction 2 (aged twenty-four hours): FIG. 9B; for microbicidal activity, Reaction 2 (aged twenty-four hours) / retention of microbicidal activity on ageing / microbicidal activity, Reaction 1 (aged two minutes): 10 mM NaBr, 8.9 mM H2O2; for retention of microbicidal activity on ageing: FIGS. 8A-8C, aged two minutes, twenty-four or ninety-six hours; for kill of the microbes added to aged formulations: aged for up to ninety-six hours before the addition of bacteria; for microbicidal activity, Reaction 1 (aged two minutes): FIG. 9A
S. aureus [4] = test: Microbicidal plate assay, hydrogen peroxide/pEPO/ethanolamine versus neat hydrogen peroxide (Example 4)

NCCO [ethanolamine]
microbicidal activity, Reaction 2 (aged 5 minutes with H2O2) (S. aureus [1]): maintained microbicidal activity
microbicidal activity, Reaction 1 (aged 0 min) (S. aureus [1]): some microbicidal activity
effect of ethanolamine on microbicidal activity (S. aureus [2]): significantly enhances the microbicidal activity of pEPO/H2O2 compositions
microbicidal activity, Reaction 2 (aged twenty-four hours) (S. aureus [3]): retain microbicidal activity for twenty-four hours
retention of microbicidal activity on ageing (S. aureus [3]): retain microbicidal activity up to at least ninety-six hours
kill of the microbes added to aged formulations (S. aureus [3]): complete kill

OO [hydrogen peroxide]
concentration of H2O2 effective to result in a complete kill (as low as) (S. aureus [4]): 0.5 mM
killing the bacteria by neat hydrogen peroxide (S. aureus [4]; 89 mM (0.3%), no pEPO, one minute): ineffective in killing the bacteria
kill of the bacteria (S. aureus [4]; hydrogen peroxide 0.5 mM with the addition of pEPO, Plate 2): 100%

OCCNCCO [diethanolamine]
microbicidal activity, Reaction 2 (aged 5 minutes with H2O2) (S. aureus [1]): maintained microbicidal activity
microbicidal activity, Reaction 1 (aged 0 min) (S. aureus [1]): some microbicidal activity

NCC(N)=O [glycinamide, Glycinamide, reference compound]
microbicidal activity, Reaction 1 (aged two minutes) (S. aureus [3]): show initial microbicidal activity
microbicidal activity, Reaction 2 (aged twenty-four hours) (S. aureus [3]): lose microbicidal activity after twenty-four hours

NCCCO [propanolamine]
retention of microbicidal activity on ageing (S. aureus [3]): retain microbicidal activity up to at least ninety-six hours
kill of the microbes added to aged formulations (S. aureus [3]): complete kill

N[C@@H](CO)C(=O)O [serine, L-serine, reference compound]
microbicidal activity, Reaction 2 (aged 5 minutes with H2O2) (S. aureus [1]): only formulations comprising pEPO and ethanolamine or diethanolamine maintained microbicidal activity
microbicidal activity, Reaction 1 (aged 0 min) (S. aureus [1]): some microbicidal activity

COC(=O)CN [glycine methyl ester, Glycine methyl ester, reference compound]
microbicidal activity, Reaction 1 (aged two minutes) (S. aureus [3]): show initial microbicidal activity
microbicidal activity, Reaction 2 (aged twenty-four hours) (S. aureus [3]): lose microbicidal activity after twenty-four hours
